Measured values published in PubChem BioAssay AID2060511 (Molecular Pharmacology Branch, DTP, NCI, 2025).

Test system: 422866-222-R5-J1-PDC spheroids with HUVEC/MSC, viability
Experiment: Anticancer human tumor 422866-222-R5-J1-PDC patient-derived pancreatic adenocarcinoma cell line growth inhibition [GQUAD]
Settings: for IC50: curve of first compound; for viability, T/C: stronger effect = lower value; active = viability on the fitted dose curve at most 10% of control; inactive = the rest
Method in brief: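 Tumor cells were grown as complex spheroids with HUVEC endothelial cells and mesenchymal stem cells as stroma. G-quadruplex stabilizers were combined with targeted agents over half-log dilutions from near the clinical Cmax, or from 10 microM.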

[1] = second compound 0.0316 µM, first compound 0.0316 µM
[2] = second compound 0.0316 µM, first compound 0.1 µM
[3] = second compound 0.0316 µM, first compound 0.316 µM
[4] = second compound 0.0316 µM, first compound 1 µM
[5] = second compound 0.0316 µM, first compound 3.16 µM
[6] = second compound 0.0316 µM, first compound 10 µM
[7] = second compound 0.1 µM, first compound 0.0316 µM
[8] = second compound 0.1 µM, first compound 0.1 µM
[9] = second compound 0.1 µM, first compound 0.316 µM
[10] = second compound 0.1 µM, first compound 1 µM
[11] = second compound 0.1 µM, first compound 3.16 µM
[12] = second compound 0.1 µM, first compound 10 µM
[13] = second compound 0.316 µM, first compound 0.0316 µM
[14] = second compound 0.316 µM, first compound 0.1 µM
[15] = second compound 0.316 µM, first compound 0.316 µM
[16] = second compound 0.316 µM, first compound 1 µM
[17] = second compound 0.316 µM, first compound 3.16 µM
[18] = second compound 0.316 µM, first compound 10 µM
[19] = second compound 1 µM, first compound 0.0316 µM
[20] = second compound 1 µM, first compound 0.1 µM
[21] = second compound 1 µM, first compound 0.316 µM
[22] = second compound 1 µM, first compound 1 µM
[23] = second compound 1 µM, first compound 3.16 µM
[24] = second compound 1 µM, first compound 10 µM
[25] = second compound 3.16 µM, first compound 0.0316 µM
[26] = second compound 3.16 µM, first compound 0.1 µM
[27] = second compound 3.16 µM, first compound 0.316 µM
[28] = second compound 3.16 µM, first compound 1 µM
[29] = second compound 3.16 µM, first compound 3.16 µM
[30] = second compound 3.16 µM, first compound 10 µM
[31] = second compound 10 µM, first compound 0.0316 µM
[32] = second compound 10 µM, first compound 0.1 µM
[33] = second compound 10 µM, first compound 0.316 µM
[34] = second compound 10 µM, first compound 1 µM
[35] = second compound 10 µM, first compound 3.16 µM
[36] = second compound 10 µM, first compound 10 µM
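Also: spheroids exposed to compounds for seven days before reading.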
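For viability, T/C in this document: percent viability relative to DMSO vehicle control taken as 100%.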

O=C(c1cc(Cc2n[nH]c(=O)c3ccccc23)ccc1F)N1CCN(C(=O)C2CC2)CC1 + Cc1[nH]c2ccc(F)cc2c1-c1nc2c3cccnc3c3ncccc3c2[nH]1
> 10000 nM: IC50 (second compound 0.0316 µM) | IC50 (second compound 0.1 µM) | IC50 (second compound 0.316 µM) | IC50 (second compound 1 µM) | IC50 (second compound 3.16 µM) | IC50 (second compound 10 µM)
inactive: viability, T/C [1] 99% | viability, T/C [2] 87.9% | viability, T/C [3] 91% | viability, T/C [4] 77% | viability, T/C [5] 83.1% | viability, T/C [6] 65.6% | viability, T/C [7] 102% | viability, T/C [8] 85.1% | viability, T/C [9] 86% | viability, T/C [10] 89.2% | viability, T/C [11] 93% | viability, T/C [12] 81.4% | viability, T/C [13] 104% | viability, T/C [14] 83.9% | viability, T/C [15] 90.6% | viability, T/C [16] 72.8% | viability, T/C [17] 87.4% | viability, T/C [18] 79.7% | viability, T/C [19] 89.9% | viability, T/C [20] 100% | viability, T/C [21] 89.2% | viability, T/C [22] 88.7% | viability, T/C [23] 94.7% | viability, T/C [24] 83.6% | viability, T/C [25] 79.4% | viability, T/C [26] 83.5% | viability, T/C [27] 75.4% | viability, T/C [28] 100% | viability, T/C [29] 81.7% | viability, T/C [30] 79.6% | viability, T/C [31] 66.6% | viability, T/C [32] 70.8% | viability, T/C [33] 81.2% | viability, T/C [34] 64.2% | viability, T/C [35] 85.9% | viability, T/C [36] 77.7%

COc1cc(C2c3cc4c(cc3C(OC3OC5COC(C)OC5C(O)C3O)C3COC(=O)C23)OCO4)cc(OC)c1O (stereo not drawn) + Cc1[nH]c2ccc(F)cc2c1-c1nc2c3cccnc3c3ncccc3c2[nH]1
835 nM: IC50 (second compound 0.1 µM)
1570 nM: IC50 (second compound 0.0316 µM)
945 nM: IC50 (second compound 3.16 µM)
2050 nM: IC50 (second compound 0.316 µM)
1920 nM: IC50 (second compound 1 µM)
2230 nM: IC50 (second compound 10 µM)
inactive: viability, T/C [1] 108% | viability, T/C [2] 96.3% | viability, T/C [3] 86.6% | viability, T/C [4] 51.3% | viability, T/C [5] 47.8% | viability, T/C [6] 40.2% | viability, T/C [7] 100% | viability, T/C [8] 104% | viability, T/C [9] 68.5% | viability, T/C [10] 52% | viability, T/C [11] 48.6% | viability, T/C [12] 36.6% | viability, T/C [13] 97.7% | viability, T/C [14] 87.9% | viability, T/C [15] 75.2% | viability, T/C [16] 56.8% | viability, T/C [17] 45.5% | viability, T/C [18] 39.8% | viability, T/C [19] 97.1% | viability, T/C [20] 92.2% | viability, T/C [21] 85.8% | viability, T/C [22] 59.7% | viability, T/C [23] 42.5% | viability, T/C [24] 38.5% | viability, T/C [25] 82.8% | viability, T/C [26] 90.3% | viability, T/C [27] 75.5% | viability, T/C [28] 48.6% | viability, T/C [29] 48.5% | viability, T/C [30] 38.5% | viability, T/C [31] 87.8% | viability, T/C [32] 89.2% | viability, T/C [33] 77.4% | viability, T/C [34] 56.5% | viability, T/C [35] 46.5% | viability, T/C [36] 46.8%

C=CC(=O)N1CCN(c2nc(=O)n(-c3c(C)ccnc3C(C)C)c3nc(-c4c(O)cccc4F)c(F)cc23)C(C)C1 (stereo not drawn) + Cc1[nH]c2ccc(F)cc2c1-c1nc2c3cccnc3c3ncccc3c2[nH]1
inactive: viability, T/C [1] 43.8% | viability, T/C [2] 32.5% | viability, T/C [3] 25.1% | viability, T/C [4] 28.4% | viability, T/C [5] 29.4% | viability, T/C [6] 28.1% | viability, T/C [7] 41.1% | viability, T/C [8] 33.6% | viability, T/C [9] 24.9% | viability, T/C [10] 26.5% | viability, T/C [11] 29.1% | viability, T/C [12] 31.7% | viability, T/C [13] 44.1% | viability, T/C [14] 29.1% | viability, T/C [15] 24.8% | viability, T/C [16] 24.1% | viability, T/C [17] 30.1% | viability, T/C [18] 29.8% | viability, T/C [19] 38.1% | viability, T/C [20] 30.4% | viability, T/C [21] 26.8% | viability, T/C [22] 25.3% | viability, T/C [23] 28% | viability, T/C [24] 30.9% | viability, T/C [25] 32.6% | viability, T/C [26] 27.4% | viability, T/C [27] 25.8% | viability, T/C [28] 27.5% | viability, T/C [29] 28.8% | viability, T/C [30] 25.7% | viability, T/C [31] 27.2% | viability, T/C [32] 29.6% | viability, T/C [33] 26.3% | viability, T/C [34] 26.3% | viability, T/C [35] 28.1% | viability, T/C [36] 27.9%
< 31.6 nM: IC50 (second compound 0.0316 µM) | IC50 (second compound 0.1 µM) | IC50 (second compound 0.316 µM) | IC50 (second compound 1 µM) | IC50 (second compound 3.16 µM) | IC50 (second compound 10 µM)

Cc1cccc(N(C)C(=O)C2C(O)CCN2c2nc(C)cc(C(F)(F)F)c2C#N)c1 (stereo not drawn) + CN(C)c1ccc(Nc2c3ccc(NC(=O)CCN4CCCC4)cc3nc3cc(NC(=O)CCN4CCCC4)ccc23)cc1
inactive: viability, T/C [1] 119% | viability, T/C [2] 98.6% | viability, T/C [3] 104% | viability, T/C [4] 88.3% | viability, T/C [5] 96.6% | viability, T/C [6] 107% | viability, T/C [7] 92.1% | viability, T/C [8] 81% | viability, T/C [9] 105% | viability, T/C [10] 80.1% | viability, T/C [11] 102% | viability, T/C [12] 99.5% | viability, T/C [13] 97.8% | viability, T/C [14] 69.4% | viability, T/C [15] 80.6% | viability, T/C [16] 86.2% | viability, T/C [17] 103% | viability, T/C [18] 111% | viability, T/C [19] 84.4% | viability, T/C [20] 86.1% | viability, T/C [21] 80.7% | viability, T/C [22] 91.7% | viability, T/C [23] 101% | viability, T/C [24] 93.2% | viability, T/C [25] 77.9% | viability, T/C [26] 70.4% | viability, T/C [27] 79.7% | viability, T/C [28] 85.6% | viability, T/C [29] 88.8% | viability, T/C [30] 93.6% | viability, T/C [31] 72.6% | viability, T/C [32] 90.5% | viability, T/C [33] 98.3% | viability, T/C [34] 82.4% | viability, T/C [35] 82.4% | viability, T/C [36] 85%
> 10000 nM: IC50 (second compound 0.0316 µM) | IC50 (second compound 0.1 µM) | IC50 (second compound 0.316 µM) | IC50 (second compound 1 µM) | IC50 (second compound 3.16 µM) | IC50 (second compound 10 µM)
